From patent publication US20150139959A1 (priority 2009, published 2015)

What was measured:
[1] = 14-day daily gavage toxicity study, body and organ weights; details: for Feed efficacy (Body weight gain/Food Consumption) / Final body weight: 14 days
3T3 mouse fibroblasts = type: cell-based
Caco-2 cells = type: cell-based, Human

Row | Structure (SMILES) | Food Consumption during the 14 days ([1]; 2 mg/kg bw) [g] | Feed efficacy (Body weight gain/Food Consumption) ([1]; 2 mg/kg bw) | BrdU bioassay IC50 (95% Confidence Interval) (3T3 mouse fibroblasts) | MTT bioassay IC50 (95% Confidence Interval) (Caco-2 cells) | Food Consumption during the 14 days ([1]; 25 mg/kg bw) [g] | Feed efficacy (Body weight gain/Food Consumption) ([1]; 25 mg/kg bw) | Final body weight ([1]; 25 mg/kg bw) [g] | Food Consumption during the 14 days ([1]; 100 mg/kg bw) [g] | Feed efficacy (Body weight gain/Food Consumption) ([1]; 100 mg/kg bw) | Final body weight ([1]; 100 mg/kg bw) [g]
1 | CC1=C[C@H]2O[C@@H]3[C@H](O)C[C@](C)([C@@]2(CO)[C@H](O)C1=O)[C@]31CO1 [DON, Deoxynivalenol, reference compound] | 81.090 | 0.0252 | 0.238 (0.162, 0.349) μg/mL | 0.409 (0.324, 0.518) μg/mL | – | – | – | – | – | –
2 | CC1=C[C@H]2O[C@@H]3[C@H](O)C[C@](C)([C@@]2(CO)[C@H](O)C1=O)[C@]31CO1 [3-epi-DON] | – | – | 281 (156, 505) μg/mL | 146 (100, 212) μg/mL | 85.860 | 0.0475 | 21.390 | 85.760 | 0.0413 | 21.680
